{
  "source": "paper PMC5290327",
  "about": "“SC83288 is a clinical development candidate for the treatment of severe malaria” (Nature Communications, 2017)",
  "assay_in_all_cases": "KINOMEscan",
  "format_in_all_cases": "binding",
  "settings_in_all_cases": "read-out: Remaining enzyme activity",
  "key": {"BTK": {"target": "T1, BTK (Homo sapiens, UniProt Q06187)", "T1 construct": "purchased Ambit (DiscoverX) KINOMEscan; Cerep", "in_short": "(§1)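 Measures displacement of tagged kinase from an immobilized active-site probe rather than enzymatic activity. SC81458 was added at 10 μM final from a 40x stock in 100% DMSO. Bound kinase was eluted and counted via qPCR.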"}, "CAMK1": {"target": "T2, CAMK1 (Homo sapiens, UniProt Q14012)", "T2 construct": "purchased Ambit (DiscoverX) KINOMEscan; Cerep", "in_short": "as §1"}, "CDK2": {"target": "T3, CDK2 (Homo sapiens, UniProt P24941)", "T3 construct": "purchased Ambit (DiscoverX) KINOMEscan; Cerep", "in_short": "as §1"}, "CLK1": {"target": "T4, CLK1 (Homo sapiens, UniProt P49759)", "T4 construct": "purchased Ambit (DiscoverX) KINOMEscan; Cerep", "in_short": "as §1"}, "CSF1R": {"target": "T5, CSF1R (Homo sapiens, UniProt P07333)", "T5 construct": "purchased Ambit (DiscoverX) KINOMEscan; Cerep", "T5 sequence (P07333 20-972)": "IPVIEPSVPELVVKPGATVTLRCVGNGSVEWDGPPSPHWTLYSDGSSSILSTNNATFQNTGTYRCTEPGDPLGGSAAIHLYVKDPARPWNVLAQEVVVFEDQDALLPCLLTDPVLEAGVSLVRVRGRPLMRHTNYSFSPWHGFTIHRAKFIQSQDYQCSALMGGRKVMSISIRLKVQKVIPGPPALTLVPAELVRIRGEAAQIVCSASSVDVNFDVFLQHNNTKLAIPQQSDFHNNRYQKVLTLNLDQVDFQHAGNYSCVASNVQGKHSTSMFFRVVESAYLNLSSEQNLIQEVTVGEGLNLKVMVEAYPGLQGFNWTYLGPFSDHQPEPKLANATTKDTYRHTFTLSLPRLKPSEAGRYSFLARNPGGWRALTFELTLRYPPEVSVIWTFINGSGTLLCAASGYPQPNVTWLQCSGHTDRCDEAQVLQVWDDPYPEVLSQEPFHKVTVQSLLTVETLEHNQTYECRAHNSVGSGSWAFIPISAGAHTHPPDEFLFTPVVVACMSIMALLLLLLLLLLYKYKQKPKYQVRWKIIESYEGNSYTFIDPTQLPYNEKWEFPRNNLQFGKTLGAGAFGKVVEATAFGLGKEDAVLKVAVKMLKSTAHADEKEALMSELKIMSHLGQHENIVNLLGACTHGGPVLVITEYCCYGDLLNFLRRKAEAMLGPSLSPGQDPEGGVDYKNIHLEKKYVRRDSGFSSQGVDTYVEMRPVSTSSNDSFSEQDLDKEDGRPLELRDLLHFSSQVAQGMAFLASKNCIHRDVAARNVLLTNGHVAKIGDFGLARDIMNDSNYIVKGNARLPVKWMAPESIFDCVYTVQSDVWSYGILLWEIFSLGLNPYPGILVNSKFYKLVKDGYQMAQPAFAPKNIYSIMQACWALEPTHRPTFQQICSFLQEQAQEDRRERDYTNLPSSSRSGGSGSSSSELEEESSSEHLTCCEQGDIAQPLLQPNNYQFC", "in_short": "as §1"}, "CSNK2a1": {"target": "T6, CSNK2a1 (Homo sapiens, UniProt P68400)", "T6 construct": "purchased Ambit (DiscoverX) KINOMEscan; Cerep", "in_short": "as §1"}, "DCAMKL1": {"target": "T7, DCAMKL1 (Homo sapiens, UniProt O15075)", "T7 construct": "purchased Ambit (DiscoverX) KINOMEscan; Cerep", "in_short": "as §1"}, "DRAK1": {"target": "T8, DRAK1 (Homo sapiens, UniProt Q9UEE5)", "T8 construct": "purchased Ambit (DiscoverX) KINOMEscan; Cerep", "in_short": "as §1"}, "EGFR(L861Q)": {"target": "T9, EGFR(L861Q) (Homo sapiens, UniProt P00533, L861Q)", "T9 construct": "purchased Ambit (DiscoverX) KINOMEscan; Cerep", "in_short": "as §1"}, "EPHB3": {"target": "T10, EPHB3 (Homo sapiens, UniProt P54753)", "T10 construct": "purchased Ambit (DiscoverX) KINOMEscan; Cerep", "T10 sequence (P54753 34-998)": "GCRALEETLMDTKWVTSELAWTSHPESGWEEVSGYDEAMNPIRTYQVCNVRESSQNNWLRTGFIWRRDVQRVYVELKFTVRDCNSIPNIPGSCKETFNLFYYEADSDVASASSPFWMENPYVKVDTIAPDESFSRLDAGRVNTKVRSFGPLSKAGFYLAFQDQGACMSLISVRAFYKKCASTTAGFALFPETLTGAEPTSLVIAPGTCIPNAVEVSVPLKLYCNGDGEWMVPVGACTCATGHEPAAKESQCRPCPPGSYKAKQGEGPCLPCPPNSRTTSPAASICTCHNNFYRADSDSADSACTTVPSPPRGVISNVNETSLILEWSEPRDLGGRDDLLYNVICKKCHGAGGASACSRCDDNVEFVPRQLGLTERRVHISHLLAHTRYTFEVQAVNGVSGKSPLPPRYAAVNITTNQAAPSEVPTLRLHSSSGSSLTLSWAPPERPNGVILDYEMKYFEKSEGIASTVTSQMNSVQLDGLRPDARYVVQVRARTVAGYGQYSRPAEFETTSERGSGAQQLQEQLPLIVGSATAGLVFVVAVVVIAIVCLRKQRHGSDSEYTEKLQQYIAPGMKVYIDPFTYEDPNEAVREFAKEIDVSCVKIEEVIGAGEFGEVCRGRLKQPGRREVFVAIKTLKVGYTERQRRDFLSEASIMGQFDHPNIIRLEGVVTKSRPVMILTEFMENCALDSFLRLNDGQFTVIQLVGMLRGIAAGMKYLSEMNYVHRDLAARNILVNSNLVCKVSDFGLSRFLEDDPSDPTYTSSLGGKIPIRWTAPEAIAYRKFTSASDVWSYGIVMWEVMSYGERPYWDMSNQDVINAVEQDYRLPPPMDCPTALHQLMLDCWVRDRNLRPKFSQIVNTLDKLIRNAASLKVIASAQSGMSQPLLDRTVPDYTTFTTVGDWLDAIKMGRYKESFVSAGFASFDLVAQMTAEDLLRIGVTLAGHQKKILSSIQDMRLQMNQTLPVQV", "in_short": "as §1"}, "EPHB4": {"target": "T11, EPHB4 (Homo sapiens, UniProt P54760)", "T11 construct": "purchased Ambit (DiscoverX) KINOMEscan; Cerep", "in_short": "as §1"}, "FLT3(N841I)": {"target": "T12, FLT3(N841I) (Homo sapiens, UniProt P36888, N841I)", "T12 construct": "purchased Ambit (DiscoverX) KINOMEscan; Cerep", "in_short": "as §1"}, "GCN2(kin.Dom.2, S808G)": {"target": "T13, GCN2(kin.Dom.2, S808G) (Homo sapiens, UniProt Q9P2K8, S808G)", "T13 construct": "GCN2(kin.Dom.2, S808G); purchased Ambit (DiscoverX) KINOMEscan; Cerep", "in_short": "as §1"}, "NEK1": {"target": "T14, NEK1 (Homo sapiens, UniProt Q96PY6)", "T14 construct": "purchased Ambit (DiscoverX) KINOMEscan; Cerep", "in_short": "as §1"}, "PAK7": {"target": "T15, PAK7 (Homo sapiens, UniProt Q9P286)", "T15 construct": "purchased Ambit (DiscoverX) KINOMEscan; Cerep", "in_short": "as §1"}, "PHKG1": {"target": "T16, PHKG1 (Homo sapiens, UniProt Q16816)", "T16 construct": "purchased Ambit (DiscoverX) KINOMEscan; Cerep", "in_short": "as §1"}, "PIK3CA": {"target": "T17, PIK3CA (Homo sapiens, UniProt P42336)", "T17 construct": "purchased Ambit (DiscoverX) KINOMEscan; Cerep", "in_short": "as §1"}, "PRKCD": {"target": "T18, PRKCD (Homo sapiens, UniProt Q05655)", "T18 construct": "purchased Ambit (DiscoverX) KINOMEscan; Cerep", "in_short": "as §1"}, "PRKCE": {"target": "T19, PRKCE (Homo sapiens, UniProt Q02156)", "T19 construct": "purchased Ambit (DiscoverX) KINOMEscan; Cerep", "in_short": "as §1"}, "PRKCH": {"target": "T20, PRKCH (Homo sapiens, UniProt P24723)", "T20 construct": "purchased Ambit (DiscoverX) KINOMEscan; Cerep", "T20 sequence (P24723 whole entry)": "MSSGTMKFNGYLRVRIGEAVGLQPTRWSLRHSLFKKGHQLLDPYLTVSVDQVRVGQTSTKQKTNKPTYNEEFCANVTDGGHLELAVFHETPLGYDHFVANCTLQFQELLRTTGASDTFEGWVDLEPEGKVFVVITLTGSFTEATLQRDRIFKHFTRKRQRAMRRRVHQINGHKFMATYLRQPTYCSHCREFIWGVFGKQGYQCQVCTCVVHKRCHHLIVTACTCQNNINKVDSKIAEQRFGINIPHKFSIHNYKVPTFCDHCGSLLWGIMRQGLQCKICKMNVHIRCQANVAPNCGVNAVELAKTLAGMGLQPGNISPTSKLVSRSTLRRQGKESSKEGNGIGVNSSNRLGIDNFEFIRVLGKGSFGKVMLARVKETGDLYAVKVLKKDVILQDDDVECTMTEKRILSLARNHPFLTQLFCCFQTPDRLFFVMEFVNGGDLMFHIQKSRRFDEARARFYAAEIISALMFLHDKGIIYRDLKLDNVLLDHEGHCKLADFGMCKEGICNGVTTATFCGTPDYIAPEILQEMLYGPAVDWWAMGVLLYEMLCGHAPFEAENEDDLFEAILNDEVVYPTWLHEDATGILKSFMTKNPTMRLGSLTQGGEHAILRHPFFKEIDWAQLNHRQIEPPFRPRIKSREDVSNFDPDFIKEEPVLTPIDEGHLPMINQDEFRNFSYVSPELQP", "in_short": "as §1"}, "PRKD2": {"target": "T21, PRKD2 (Homo sapiens, UniProt Q9BZL6)", "T21 construct": "purchased Ambit (DiscoverX) KINOMEscan; Cerep", "in_short": "as §1"}, "PRKG1": {"target": "T22, PRKG1 (Homo sapiens, UniProt Q13976)", "T22 construct": "purchased Ambit (DiscoverX) KINOMEscan; Cerep", "in_short": "as §1"}, "PRP4": {"target": "T23, PRP4 (Homo sapiens, UniProt Q13523)", "T23 construct": "purchased Ambit (DiscoverX) KINOMEscan; Cerep", "in_short": "as §1"}, "RIOK2": {"target": "T24, RIOK2 (Homo sapiens, UniProt Q9BVS4)", "T24 construct": "purchased Ambit (DiscoverX) KINOMEscan; Cerep", "in_short": "as §1"}, "[1]": {"target": "T25, RPS6KA5(Kin.Dom.1-N-term) (Homo sapiens, UniProt O75582)", "T25 construct": "RPS6KA5(Kin.Dom.1-N-term); purchased Ambit (DiscoverX) KINOMEscan; Cerep", "in_short": "as §1"}, "STK36": {"target": "T26, STK36 (Homo sapiens, UniProt Q9NRP7)", "T26 construct": "purchased Ambit (DiscoverX) KINOMEscan; Cerep", "T26 sequence (Q9NRP7 whole entry)": "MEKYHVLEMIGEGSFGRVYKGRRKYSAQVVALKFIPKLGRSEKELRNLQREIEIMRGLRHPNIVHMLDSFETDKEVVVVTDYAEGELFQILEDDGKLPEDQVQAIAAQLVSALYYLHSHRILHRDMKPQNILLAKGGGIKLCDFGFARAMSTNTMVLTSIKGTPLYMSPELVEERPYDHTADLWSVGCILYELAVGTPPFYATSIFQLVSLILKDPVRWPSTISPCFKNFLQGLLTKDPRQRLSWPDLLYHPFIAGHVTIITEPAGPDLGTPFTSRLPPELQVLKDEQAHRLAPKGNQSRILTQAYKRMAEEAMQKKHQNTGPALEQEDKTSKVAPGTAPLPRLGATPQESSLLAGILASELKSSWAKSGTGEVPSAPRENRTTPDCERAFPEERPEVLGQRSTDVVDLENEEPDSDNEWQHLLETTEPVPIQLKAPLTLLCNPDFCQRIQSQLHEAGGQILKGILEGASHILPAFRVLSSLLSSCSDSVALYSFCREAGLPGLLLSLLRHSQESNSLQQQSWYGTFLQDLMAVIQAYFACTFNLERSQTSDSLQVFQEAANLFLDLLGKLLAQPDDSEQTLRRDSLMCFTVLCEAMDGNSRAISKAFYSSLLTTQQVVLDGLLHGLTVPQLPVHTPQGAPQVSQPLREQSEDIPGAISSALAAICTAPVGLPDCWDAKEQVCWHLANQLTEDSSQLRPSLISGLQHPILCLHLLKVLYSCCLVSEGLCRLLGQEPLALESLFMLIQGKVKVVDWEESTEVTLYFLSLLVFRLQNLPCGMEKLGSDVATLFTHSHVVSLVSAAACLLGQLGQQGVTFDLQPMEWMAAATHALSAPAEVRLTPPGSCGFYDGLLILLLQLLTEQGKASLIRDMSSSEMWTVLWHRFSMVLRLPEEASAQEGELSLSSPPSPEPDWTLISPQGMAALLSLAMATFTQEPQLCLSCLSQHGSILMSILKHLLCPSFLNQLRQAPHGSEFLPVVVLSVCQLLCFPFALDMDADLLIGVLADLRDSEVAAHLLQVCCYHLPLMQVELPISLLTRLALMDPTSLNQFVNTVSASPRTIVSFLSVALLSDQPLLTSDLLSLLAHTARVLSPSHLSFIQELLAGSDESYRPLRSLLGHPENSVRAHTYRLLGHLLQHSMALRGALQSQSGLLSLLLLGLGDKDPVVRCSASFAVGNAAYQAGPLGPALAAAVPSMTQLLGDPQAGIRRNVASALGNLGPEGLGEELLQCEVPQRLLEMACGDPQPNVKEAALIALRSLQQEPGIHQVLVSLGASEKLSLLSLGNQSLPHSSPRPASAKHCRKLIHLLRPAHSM", "in_short": "as §1"}, "TESK1": {"target": "T27, TESK1 (Homo sapiens, UniProt Q15569)", "T27 construct": "purchased Ambit (DiscoverX) KINOMEscan; Cerep", "T27 sequence (Q15569 whole entry)": "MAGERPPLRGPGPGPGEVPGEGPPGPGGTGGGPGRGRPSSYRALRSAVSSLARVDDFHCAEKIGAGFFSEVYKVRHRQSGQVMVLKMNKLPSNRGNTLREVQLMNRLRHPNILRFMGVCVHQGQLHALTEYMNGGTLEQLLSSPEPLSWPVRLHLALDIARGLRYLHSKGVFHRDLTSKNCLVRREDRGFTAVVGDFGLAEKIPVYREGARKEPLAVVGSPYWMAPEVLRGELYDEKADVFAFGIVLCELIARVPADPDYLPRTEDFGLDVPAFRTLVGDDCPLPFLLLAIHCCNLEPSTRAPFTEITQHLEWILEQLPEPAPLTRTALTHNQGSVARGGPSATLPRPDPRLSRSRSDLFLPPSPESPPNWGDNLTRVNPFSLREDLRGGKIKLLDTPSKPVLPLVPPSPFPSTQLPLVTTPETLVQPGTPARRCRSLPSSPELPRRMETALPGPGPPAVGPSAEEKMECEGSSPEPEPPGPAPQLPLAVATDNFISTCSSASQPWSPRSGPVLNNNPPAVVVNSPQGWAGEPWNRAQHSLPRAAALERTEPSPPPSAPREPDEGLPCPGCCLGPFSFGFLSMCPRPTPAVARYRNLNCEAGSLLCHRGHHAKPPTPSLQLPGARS", "in_short": "as §1"}, "TGFBR2": {"target": "T28, TGFBR2 (Homo sapiens, UniProt P37173)", "T28 construct": "purchased Ambit (DiscoverX) KINOMEscan; Cerep", "T28 sequence (P37173 23-567)": "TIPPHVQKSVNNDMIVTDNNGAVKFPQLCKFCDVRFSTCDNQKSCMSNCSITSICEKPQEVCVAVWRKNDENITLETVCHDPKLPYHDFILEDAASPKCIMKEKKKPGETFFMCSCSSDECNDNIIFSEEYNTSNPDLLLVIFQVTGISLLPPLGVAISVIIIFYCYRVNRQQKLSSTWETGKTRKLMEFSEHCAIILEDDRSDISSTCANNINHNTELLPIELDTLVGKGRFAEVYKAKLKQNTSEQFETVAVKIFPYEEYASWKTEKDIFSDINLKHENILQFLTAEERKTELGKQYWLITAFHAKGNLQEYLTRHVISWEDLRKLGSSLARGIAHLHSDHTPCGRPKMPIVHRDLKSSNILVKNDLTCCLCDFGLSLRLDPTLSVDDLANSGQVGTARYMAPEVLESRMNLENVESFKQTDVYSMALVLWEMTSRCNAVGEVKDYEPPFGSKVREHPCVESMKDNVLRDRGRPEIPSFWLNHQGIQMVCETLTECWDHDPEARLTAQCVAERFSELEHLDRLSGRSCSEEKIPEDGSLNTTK", "in_short": "as §1"}, "TIE2": {"target": "T29, TIE2 (Homo sapiens, UniProt Q02763)", "T29 construct": "purchased Ambit (DiscoverX) KINOMEscan; Cerep", "in_short": "as §1"}, "TRKa": {"target": "T30, TRKa (Homo sapiens, UniProt P04629)", "T30 construct": "purchased Ambit (DiscoverX) KINOMEscan; Cerep", "in_short": "as §1"}, "TYK2(JHdomain-catalytic)": {"target": "T31, TYK2(JHdomain-catalytic) (Homo sapiens, UniProt P29597)", "T31 construct": "TYK2(JHdomain-catalytic); purchased Ambit (DiscoverX) KINOMEscan; Cerep", "in_short": "as §1"}, "WEE2": {"target": "T32, WEE2 (Homo sapiens, UniProt P0C1S8)", "T32 construct": "purchased Ambit (DiscoverX) KINOMEscan; Cerep", "in_short": "as §1"}},
  "data": [
    {"smiles": "CCCCN1CCN(C(=N)c2cccc(NC(=O)Nc3ccc(S(=O)(=O)NCc4ccc(S(N)(=O)=O)cc4)cc3)c2)CC1", "note": "[SC81458, 4-(3-(3-((4-butylpiperazin-1-yl)(imino)methyl)phenyl)ureido)-N-(4-sulfamoylbenzyl) benzenesulfonamide]", "values": [
      {"measurement": "remaining binding at 10 µM", "setting": "BTK", "value": 100, "unit": "%"},
      {"measurement": "remaining binding at 10 µM", "setting": "CAMK1", "value": 82, "unit": "%"},
      {"measurement": "remaining binding at 10 µM", "setting": "CDK2", "value": 100, "unit": "%"},
      {"measurement": "remaining binding at 10 µM", "setting": "CLK1", "value": 100, "unit": "%"},
      {"measurement": "remaining binding at 10 µM", "setting": "CSF1R", "value": 82, "unit": "%"},
      {"measurement": "remaining binding at 10 µM", "setting": "CSNK2a1", "value": 62, "unit": "%"},
      {"measurement": "remaining binding at 10 µM", "setting": "DCAMKL1", "value": 100, "unit": "%"},
      {"measurement": "remaining binding at 10 µM", "setting": "DRAK1", "value": 98, "unit": "%"},
      {"measurement": "remaining binding at 10 µM", "setting": "EGFR(L861Q)", "value": 91, "unit": "%"},
      {"measurement": "remaining binding at 10 µM", "setting": "EPHB3", "value": 98, "unit": "%"},
      {"measurement": "remaining binding at 10 µM", "setting": "EPHB4", "value": 100, "unit": "%"},
      {"measurement": "remaining binding at 10 µM", "setting": "FLT3(N841I)", "value": 100, "unit": "%"},
      {"measurement": "remaining binding at 10 µM", "setting": "GCN2(kin.Dom.2, S808G)", "value": 100, "unit": "%"},
      {"measurement": "remaining binding at 10 µM", "setting": "NEK1", "value": 83, "unit": "%"},
      {"measurement": "remaining binding at 10 µM", "setting": "PAK7", "value": 100, "unit": "%"},
      {"measurement": "remaining binding at 10 µM", "setting": "PHKG1", "value": 80, "unit": "%"},
      {"measurement": "remaining binding at 10 µM", "setting": "PIK3CA", "value": 83, "unit": "%"},
      {"measurement": "remaining binding at 10 µM", "setting": "PRKCD", "value": 100, "unit": "%"},
      {"measurement": "remaining binding at 10 µM", "setting": "PRKCE", "value": 100, "unit": "%"},
      {"measurement": "remaining binding at 10 µM", "setting": "PRKCH", "value": 92, "unit": "%"},
      {"measurement": "remaining binding at 10 µM", "setting": "PRKD2", "value": 97, "unit": "%"},
      {"measurement": "remaining binding at 10 µM", "setting": "PRKG1", "value": 86, "unit": "%"},
      {"measurement": "remaining binding at 10 µM", "setting": "PRP4", "value": 100, "unit": "%"},
      {"measurement": "remaining binding at 10 µM", "setting": "RIOK2", "value": 98, "unit": "%"},
      {"measurement": "remaining binding at 10 µM", "setting": "[1]", "value": 96, "unit": "%"},
      {"measurement": "remaining binding at 10 µM", "setting": "STK36", "value": 100, "unit": "%"},
      {"measurement": "remaining binding at 10 µM", "setting": "TESK1", "value": 100, "unit": "%"},
      {"measurement": "remaining binding at 10 µM", "setting": "TGFBR2", "value": 80, "unit": "%"},
      {"measurement": "remaining binding at 10 µM", "setting": "TIE2", "value": 100, "unit": "%"},
      {"measurement": "remaining binding at 10 µM", "setting": "TRKa", "value": 100, "unit": "%"},
      {"measurement": "remaining binding at 10 µM", "setting": "TYK2(JHdomain-catalytic)", "value": 76, "unit": "%"},
      {"measurement": "remaining binding at 10 µM", "setting": "WEE2", "value": 100, "unit": "%"}
    ]}
  ]
}
